Assay results as given in patent US20100056524A1, “Compound” (priority 2008, published 2010).
Structures can show the parent of a compound that is named as a salt. Where two headings read alike, the source gives them in different places.

Columns and labels:
[1] = molecular target: T1, EF2K (Homo sapiens, UniProt O00418); test: EF2K protein kinase assay; assay type: biochemical; conditions: for remaining activity at 10 µM: 10 μM compound; for residual kinase activity EF2K: 1 μm compound; for remaining activity at 1 µM: 1 μM compound
T1 construct: All protein kinases were of human origin and encoded full length proteins, unless indicated otherwise; made in house
From the text: (§1) All protein kinases were of human origin and encoded full length proteins, unless indicated otherwise. They were either expressed as glutathione S-transferase (GST) fusion proteins in Escherichia Coli or as hexahistidine (His6)-tagged proteins in insect Sf21 cells. GST fusion proteins were purified by affinity chromatography on glutathione-Sepharose, and His6-tagged proteins on nickel/nitriloacetate-agarose. The procedures for expressing some of the protein kinases used herein have been detailed previously.^8,9 The following sections outline the DNA vectors synthesised and the procedures used to express and purifying protein kinases that have not been reported previously.
(§2) All assays (25.5 μl) were carried out at room temperature (21° C.) and were linear with respect to time and enzyme concentration under the conditions used. Assays were performed for 30 min using Multidrop Micro reagent dispensers (Thermo Electron Corporation, Waltham, Mass. 02454, USA) in a 96-well format. The concentration of magnesium acetate in the assays was 10 mM and the [γ-33P] ATP (800 cpm/pmol) was used at 5, 20 or 50 μM as indicated, in order to be at or below the Km for ATP for each enzyme. Protein kinases assayed at 5 μM ATP were: —ERK1, ERK8, PKBα, MARK3, Aurora C. Protein kinases assayed at 20 μM ATP were: —JNK1, PDK1, CHK1, CHK2, CDK2 and Aurora B. Protein kinases assayed at 50 μM ATP were: —MNK2, IKKepsilon and TBK1.
(§3) The assays were initiated with MgATP, stopped by addition of 5 μl of 0.5 M orthophosphoric acid and spotted on to P81 filterplates using a unifilter harvester (PerkinElmer, Boston, Mass. 02118, USA). The IC50 values of inhibitors were determined after carrying out assays at 10 different concentrations of each compound.
(§4) Unless stated otherwise, enzymes were diluted in 50 mM Tris/HCl pH 7.5, 0.1 mM EGTA, 1 mg/ml BSA, 0.1% (v/v) 2-mercaptoethanol and assayed in 50 mM Tris/HCl pH 7.5, 0.1 mM EGTA, 0.1% (v/v) 2-mercaptoethanol.

[2] = test system: SmMLCK; test: SmMLCK protein kinase assay; assay type: biochemical, human; conditions: for residual kinase activity: SmMLCK
From the text: as §1, §2, §3, §4

[3] = molecular target: T2, SGK1 (Homo sapiens, UniProt O00141, S422D); test: SGK1 protein kinase assay; assay type: biochemical; conditions: for remaining activity at 10 µM: 10 μM compound; for residual kinase activity SGK1: 1 μm compound; for remaining activity at 1 µM: 1 μM compound
T2 construct: All protein kinases were of human origin and encoded full length proteins, unless indicated otherwise; made in house
T2 sequence (O00141 60-431 S422D limits assumed): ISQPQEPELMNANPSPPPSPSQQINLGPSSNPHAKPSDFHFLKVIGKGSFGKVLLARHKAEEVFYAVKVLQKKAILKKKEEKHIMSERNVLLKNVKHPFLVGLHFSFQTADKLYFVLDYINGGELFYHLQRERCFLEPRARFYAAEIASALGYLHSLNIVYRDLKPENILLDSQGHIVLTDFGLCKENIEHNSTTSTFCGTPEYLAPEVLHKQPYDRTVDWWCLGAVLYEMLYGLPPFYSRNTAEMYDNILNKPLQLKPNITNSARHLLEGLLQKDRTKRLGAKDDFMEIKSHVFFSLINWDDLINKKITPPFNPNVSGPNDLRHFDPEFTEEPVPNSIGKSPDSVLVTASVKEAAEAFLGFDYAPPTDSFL
From the text: as §1, §2, §3, §4

[4] = test system: AMPK; test: AMPK protein kinase assay; assay type: biochemical, human; conditions: for residual kinase activity: AMPK
From the text: as §1, §2, §3, §4

[5] = molecular target: T3, ERK2 (Homo sapiens, UniProt P28482); test: ERK2 protein kinase assay; assay type: biochemical; conditions: for remaining activity at 10 µM: 10 μM compound; for residual kinase activity ERK2: 1 μm compound; for remaining activity at 1 µM: 1 μM compound
T3 construct: All protein kinases were of human origin and encoded full length proteins, unless indicated otherwise; made in house
T3 sequence (P28482 2-360): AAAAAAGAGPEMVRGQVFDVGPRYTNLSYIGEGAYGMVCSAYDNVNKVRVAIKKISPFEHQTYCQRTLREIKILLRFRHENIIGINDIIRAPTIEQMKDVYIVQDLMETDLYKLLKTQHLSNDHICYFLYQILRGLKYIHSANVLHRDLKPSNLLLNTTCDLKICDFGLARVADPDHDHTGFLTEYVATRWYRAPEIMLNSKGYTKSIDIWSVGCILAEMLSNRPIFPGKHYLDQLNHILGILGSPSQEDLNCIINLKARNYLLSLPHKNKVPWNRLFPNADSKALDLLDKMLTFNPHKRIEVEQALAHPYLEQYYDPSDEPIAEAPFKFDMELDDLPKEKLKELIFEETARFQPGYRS
From the text: as §1, §2, §3, §4

[6] = molecular target: PKBb (Homo sapiens, UniProt P31751, S474D); test: PKBb protein kinase assay
Sequence of PKBb (P31751 120-481 S474D): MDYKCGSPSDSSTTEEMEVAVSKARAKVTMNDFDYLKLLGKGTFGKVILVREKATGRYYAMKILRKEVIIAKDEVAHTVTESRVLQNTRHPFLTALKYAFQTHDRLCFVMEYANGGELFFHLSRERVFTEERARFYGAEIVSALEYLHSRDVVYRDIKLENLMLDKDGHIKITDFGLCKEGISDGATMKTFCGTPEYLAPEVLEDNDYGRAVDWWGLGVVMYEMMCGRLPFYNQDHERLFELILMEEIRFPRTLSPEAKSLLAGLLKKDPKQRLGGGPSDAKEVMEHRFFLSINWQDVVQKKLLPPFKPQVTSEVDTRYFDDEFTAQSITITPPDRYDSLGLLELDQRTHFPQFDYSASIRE

[7] = molecular target: T4, MELK (Homo sapiens, UniProt Q14680); test: MELK protein kinase assay; assay type: biochemical; conditions: for remaining activity at 10 µM: 10 μM compound; for residual kinase activity MELK: 1 μm compound; for remaining activity at 1 µM: 1 μM compound
T4 construct: All protein kinases were of human origin and encoded full length proteins, unless indicated otherwise; made in house
T4 sequence (Q14680 whole entry): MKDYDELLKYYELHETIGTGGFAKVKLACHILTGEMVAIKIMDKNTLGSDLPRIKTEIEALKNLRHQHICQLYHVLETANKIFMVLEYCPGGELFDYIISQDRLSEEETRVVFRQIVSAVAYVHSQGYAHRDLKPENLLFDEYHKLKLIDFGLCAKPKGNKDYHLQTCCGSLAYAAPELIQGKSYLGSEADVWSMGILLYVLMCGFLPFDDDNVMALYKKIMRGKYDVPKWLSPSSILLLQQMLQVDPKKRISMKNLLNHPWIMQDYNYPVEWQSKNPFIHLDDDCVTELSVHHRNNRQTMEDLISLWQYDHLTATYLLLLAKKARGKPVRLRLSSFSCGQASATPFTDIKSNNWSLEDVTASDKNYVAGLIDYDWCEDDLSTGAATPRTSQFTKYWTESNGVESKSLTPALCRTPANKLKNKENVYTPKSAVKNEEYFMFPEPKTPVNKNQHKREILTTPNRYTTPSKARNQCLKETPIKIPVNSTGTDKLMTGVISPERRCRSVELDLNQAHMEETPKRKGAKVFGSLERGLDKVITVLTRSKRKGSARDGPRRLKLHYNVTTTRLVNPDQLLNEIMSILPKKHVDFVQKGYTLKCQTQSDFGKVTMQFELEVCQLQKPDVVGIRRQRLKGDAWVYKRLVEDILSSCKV
From the text: as §1, §2, §3, §4

[8] = molecular target: T5, ERK1 (Homo sapiens, UniProt P27361); test: ERK1 protein kinase assay; assay type: biochemical; conditions: for remaining activity at 10 µM: 10 μM compound; for residual kinase activity ERK1: 1 μm compound; for remaining activity at 1 µM: 1 μM compound
T5 construct: All protein kinases were of human origin and encoded full length proteins, unless indicated otherwise; GST; made in house; host or cells: E. coli
T5 sequence (P27361 whole entry): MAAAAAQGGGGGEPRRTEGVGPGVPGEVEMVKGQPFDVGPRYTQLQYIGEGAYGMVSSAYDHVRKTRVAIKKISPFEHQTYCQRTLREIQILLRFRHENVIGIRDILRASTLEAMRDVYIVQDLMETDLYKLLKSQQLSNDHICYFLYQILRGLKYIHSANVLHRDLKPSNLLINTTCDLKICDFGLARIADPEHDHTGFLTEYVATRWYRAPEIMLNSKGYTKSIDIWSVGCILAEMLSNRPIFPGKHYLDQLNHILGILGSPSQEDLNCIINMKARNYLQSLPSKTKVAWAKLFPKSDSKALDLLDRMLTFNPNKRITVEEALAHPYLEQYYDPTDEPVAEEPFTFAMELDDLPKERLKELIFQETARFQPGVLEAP
From the text: as §1
The following proteins were expressed in E. coli: —CHK2[5-543], cyclin-dependent protein kinase 2 (CDK2), MAP kinase-interacting kinase 2 (MNK2), extra-cellular signal-regulated kinase 1 (ERK1).
In order to produce activated forms of Aurora B and Aurora C, insect Sf21 cells were incubated for 1 h with the protein phosphatase inhibitor okadaic acid (50 nM). JNK isoforms were activated with MKK4 and MKK7, MNK2 with p38α MAPkinase; PKBα, PKBβ, with PDK1, and ERK1 with MKK1. To activate CDK2, bacterial pellets expressing cyclin A2 and CDK2 were mixed together, lyse and purified on glutathione Sepharose. The GST-tags were removed by cleavage with PreScission protease and the CDK2-cyclin A2 complex purified by chromatography on SP-Sepharose. It was then activated with CAK1/CDK7 followed by chromatography on nickel-nitrilotriacetate agarose to remove CAK1/CDK7, which binds to this column by virtue of its C-terminal His6 tag. All the other protein kinases were active as expressed.
as §2, §3
ERK1 and ERK8 were both assayed against myelin basic protein (MBP, 0.33 mg/ml). MARK3 was assayed against the peptide […] (300 μM), MNK2 against the eIF4E protein (0.5 mg/ml). PKBβ was assayed against the peptide […] (30 μM). TBK1 were assayed against ([…]) (300 μM). The substrates used for other protein kinases were described previously.^8,9
as §4

[9] = molecular target: T6, PIM2 (Homo sapiens, UniProt Q9P1W9); test: PIM2 protein kinase assay; assay type: biochemical; conditions: for remaining activity at 10 µM: 10 μM compound; for residual kinase activity PIM2: 1 μm compound; for remaining activity at 1 µM: 1 μM compound
T6 construct: All protein kinases were of human origin and encoded full length proteins, unless indicated otherwise; made in house
T6 sequence (Q9P1W9 whole entry): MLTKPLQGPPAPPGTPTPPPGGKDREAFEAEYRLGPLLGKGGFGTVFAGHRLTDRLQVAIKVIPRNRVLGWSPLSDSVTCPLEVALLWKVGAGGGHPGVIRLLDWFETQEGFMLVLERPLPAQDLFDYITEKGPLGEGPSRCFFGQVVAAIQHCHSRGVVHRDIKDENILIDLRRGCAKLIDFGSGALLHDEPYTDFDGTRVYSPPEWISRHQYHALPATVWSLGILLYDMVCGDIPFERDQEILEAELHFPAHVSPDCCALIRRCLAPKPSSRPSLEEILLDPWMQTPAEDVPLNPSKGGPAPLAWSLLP
From the text: as §1, §2, §3, §4

[10] = molecular target: T7, FGF-R1 (Homo sapiens, UniProt P11362); test: FGF-R1 protein kinase assay; assay type: biochemical; conditions: for remaining activity at 10 µM: 10 μM compound; for residual kinase activity FGF-R1: 1 μm compound; for remaining activity at 1 µM: 1 μM compound
T7 construct: All protein kinases were of human origin and encoded full length proteins, unless indicated otherwise; made in house
T7 sequence (P11362 400-820 limits assumed): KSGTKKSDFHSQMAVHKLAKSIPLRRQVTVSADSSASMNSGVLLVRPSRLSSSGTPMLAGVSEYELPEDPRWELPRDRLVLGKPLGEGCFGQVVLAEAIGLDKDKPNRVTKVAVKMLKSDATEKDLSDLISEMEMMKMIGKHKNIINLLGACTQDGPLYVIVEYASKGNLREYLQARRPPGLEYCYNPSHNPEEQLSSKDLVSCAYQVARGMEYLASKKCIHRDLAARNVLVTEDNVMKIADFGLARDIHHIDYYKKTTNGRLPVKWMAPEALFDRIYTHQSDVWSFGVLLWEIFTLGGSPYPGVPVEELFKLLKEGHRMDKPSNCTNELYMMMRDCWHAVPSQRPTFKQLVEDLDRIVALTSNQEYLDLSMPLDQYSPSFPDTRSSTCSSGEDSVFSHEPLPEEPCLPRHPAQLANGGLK
From the text: as §1, §2, §3, §4

[11] = read-out: residual kinase activity EF2K
[12] = read-out: residual kinase activity SGK1
[13] = read-out: residual kinase activity ERK2
[14] = read-out: residual kinase activity PKBb
[15] = read-out: residual kinase activity MELK
[16] = read-out: residual kinase activity ERK1
[17] = read-out: residual kinase activity PIM2
[18] = read-out: residual kinase activity FGF-R1
[19] = EF2K, read-out: residual kinase activity
[20] = SGK1, read-out: residual kinase activity
[21] = ERK2, read-out: residual kinase activity
[22] = read-out: residual kinase activity
[23] = MELK, read-out: residual kinase activity
[24] = ERK1, 5 μM ATP, read-out: residual kinase activity
[25] = PIM2, read-out: residual kinase activity
[26] = FGF-R1, read-out: residual kinase activity

| Compound | remaining activity at 1 µM [1, 19] | remaining activity at 10 µM [1, 19] | residual kinase activity ([2]; 1 μM compound) | residual kinase activity ([2]; 10 μM compound) | remaining activity at 1 µM [3, 20] | remaining activity at 10 µM [3, 20] | residual kinase activity ([4]; 1 μM compound) | residual kinase activity ([4]; 10 μM compound) | remaining activity at 1 µM [5, 21] | remaining activity at 10 µM [5, 21] | remaining activity at 1 µM [6, 22] | remaining activity at 10 µM [6, 22] | remaining activity at 1 µM [7, 23] | remaining activity at 10 µM [7, 23] | remaining activity at 1 µM [8, 24] | remaining activity at 10 µM [8, 24] | remaining activity at 1 µM [9, 25] | remaining activity at 10 µM [9, 25] | remaining activity at 1 µM [10, 26] | remaining activity at 10 µM [10, 26] | also measured |
| --- | --- | --- | --- | --- | --- | --- | --- | --- | --- | --- | --- | --- | --- | --- | --- | --- | --- | --- | --- | --- | --- |
| O=C(NCCCNc1nc(Nc2cccc(F)c2)ncc1Br)C1CCC1 [Compound A, cyclobutanecarboxylic acid {3-[5-bromo-2-(3-fluoro-phenylamino)-pyrimidin-4-ylamino]-propyl}-amide, reference compound] | – | – | – | – | – | – | – | – | – | – | – | – | – | – | – | – | – | – | – | – | remaining activity at 10 µM [1, 11]: 88%; residual kinase activity EF2K [1]: 96%; residual kinase activity SmMLCK ([2]; 10 μM compound): 59%; residual kinase activity SmMLCK ([2]; 1 μm compound): 101%; remaining activity at 10 µM [3, 12]: 18%; residual kinase activity SGK1 [3]: 59%; residual kinase activity AMPK ([4]; 10 μM compound): 2%; residual kinase activity AMPK ([4]; 1 μm compound): 4%; remaining activity at 10 µM [5, 13]: 10%; residual kinase activity ERK2 [5]: 49%; remaining activity at 1 µM [6, 14]: 91%; remaining activity at 10 µM [6, 14]: 93%; remaining activity at 10 µM [7, 15]: 14%; residual kinase activity MELK [7]: 15%; remaining activity at 10 µM [8, 16]: 7%; residual kinase activity ERK1 [8]: 28%; remaining activity at 10 µM [9, 17]: 75%; residual kinase activity PIM2 [9]: 90%; remaining activity at 10 µM [10, 18]: 1%; residual kinase activity FGF-R1 [10]: 17% |
| O=C(NCCCNc1nc(Nc2cccc(F)c2)ncc1C1CC1)C1CCC1 [Example 23, Cyclobutanecarboxylic acid {3-[5-cyclopropyl-2-(3-fluoro-phenylamino)-pyrimidin-4-ylamino]-propyl}-amide] | 105% | 125% | 72% | 74% | 100% | 64% | 45% | 8% | 107% | 108% | 106% | 114% | 23% | 3% | 88% | 75% | 74% | 67% | 89% | 36% | remaining activity at 10 µM [1, 11]: 125%; residual kinase activity EF2K [1]: 105%; residual kinase activity SmMLCK ([2]; 10 μM compound): 74%; residual kinase activity SmMLCK ([2]; 1 μm compound): 72%; remaining activity at 10 µM [3, 12]: 64%; residual kinase activity SGK1 [3]: 100%; residual kinase activity AMPK ([4]; 10 μM compound): 8%; residual kinase activity AMPK ([4]; 1 μm compound): 45%; remaining activity at 10 µM [5, 13]: 108%; residual kinase activity ERK2 [5]: 107%; remaining activity at 1 µM [6, 14]: 106%; remaining activity at 10 µM [6, 14]: 114%; remaining activity at 10 µM [7, 15]: 3%; residual kinase activity MELK [7]: 23%; remaining activity at 10 µM [8, 16]: 75%; residual kinase activity ERK1 [8]: 88%; remaining activity at 10 µM [9, 17]: 67%; residual kinase activity PIM2 [9]: 74%; remaining activity at 10 µM [10, 18]: 36%; residual kinase activity FGF-R1 [10]: 89% |
| O=C(NCCCNc1nc(Nc2cccc(N3CCCC3=O)c2)ncc1C1CC1)c1cccs1 [Example 47, Thiophene-2-carboxylic acid (3-{5-cyclopropyl-2-[3-(2-oxo-pyrrolidin-1-yl)-phenylamino]-pyrimidin-4-ylamino}-propyl)-amide. Hydrochloride salt] | 105% | 104% | 102% | 81% | 71% | 59% | 77% | 30% | 90% | 66% | 117% | 97% | 14% | 27% | 89% | 81% | 101% | 93% | 78% | 31% | – |
| O=C(NCCCNc1nc(Nc2cccnc2)ncc1C1CC1)c1cccs1 [Example 50, Thiophene-2-carboxylic acid {3-[5-cyclopropyl-2-(pyridin-3-ylamino)-pyrimidin-4-ylamino]-propyl}-amide] | 108% | 101% | 88% | 75% | 86% | 57% | 76% | 38% | 106% | 62% | 116% | 107% | 29% | 17% | 99% | 65% | 100% | 89% | 77% | 31% | – |
